Experimental data taken from patent US5034390A, “Pyridyl-and pyrmidyl-piperazines useful for the treatment of mental disorders” (Pharmacia AB, priority 1988, dated 1991).
Where a name gives a salt, the structure may show the parent alone.

Tests used:
5-HT2 receptors = target: T1, 5-HT2 receptors (Rattus norvegicus, UniProt P14842); assay: Affinity to 5-HT2 receptors (3H-ketanserine binding assay, Leysen et al.); details: 3H-ketanserine as ligand
T1 construct: from tissue
Method: The binding assay is carried out essentially as described by Leysen et al. (Mol. Pharmacol. 21, 301-14, 1982) using ^3 H-ketanserine as ligand.

[1] = combined 5-HT2/D2 affinity; cited from earlier work

T1 sequence (P14842 whole entry): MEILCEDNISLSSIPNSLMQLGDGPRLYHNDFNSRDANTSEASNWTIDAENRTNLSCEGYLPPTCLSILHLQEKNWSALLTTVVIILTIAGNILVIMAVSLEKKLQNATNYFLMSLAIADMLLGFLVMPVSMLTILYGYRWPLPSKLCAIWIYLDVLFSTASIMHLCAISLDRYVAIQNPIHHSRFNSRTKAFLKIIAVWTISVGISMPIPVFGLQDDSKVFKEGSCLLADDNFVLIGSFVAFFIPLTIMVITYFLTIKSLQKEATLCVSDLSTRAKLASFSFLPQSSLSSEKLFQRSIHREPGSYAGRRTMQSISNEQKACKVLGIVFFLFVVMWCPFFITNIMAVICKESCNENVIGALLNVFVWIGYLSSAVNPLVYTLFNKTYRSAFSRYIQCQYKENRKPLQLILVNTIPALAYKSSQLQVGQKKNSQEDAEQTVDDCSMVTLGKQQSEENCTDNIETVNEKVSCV

Structure (SMILES) | Ki (5-HT2 receptors) [nM] | antipsychotic effect / extrapyramidal side-effects [1]
Fc1ccc(CCCCN2CCN(c3cccc(Cl)n3)CC2)cc1 [2:9, 4-/4-(p-fluorophenyl)butyl/-1-/6-chloro-2-pyridyl/piperazine hydrochloride] | 7 | 
COc1cccc(N2CCN(CCCOc3ccc(F)cc3)CC2)n1 [2:10, 4-/3-(p-fluorophenoxy)propyl/-1-/6-methoxy-2-pyridyl/piperazine fumarate] | 11 | 
NC(=O)c1cccnc1N1CCN(CCCSc2ccc(F)cc2)CC1 [2:19, 4-/3-(p-fluorothiophenoxy)propyl/-1-/3-carbamyl-2-pyridyl/piperazine dihydrochloride] | 7 | 
CN1CCN(C2=Nc3cc(Cl)ccc3Nc3ccccc32)CC1 [clozapine] |  | antipsychotic effect with a low degree of extrapyramidal side-effects
